According to patent publication US6358538B1, “Method for protecting plants from fungus” (priority 1999, dated 2002):

Test system: fungus
From the text: Various fertilizer quality nitrate salts have been used to test this effect, particularly potassium nitrate, ammonium nitrate, calcium nitrate, and sodium nitrate.

## O=[N+]([O-])O [nitrate ions, nitrate]
At the sprinkler/mist head, plants in open ground plots, approx. 10 pounds nitrate salts per acre in approx. 1,000 gallons of water
  concentration of nitrate ions in the solution found to be generally effective: 700 parts per million of water
Weak solutions, fungi on ground surface and plant surfaces, under certain conditions
  effect on germination of fungal spores and subsequent development: fungistatic effect
